Drawing on patent US20250304537A1 (Repare Therapeutics Inc., priority 2022, published 2025), this text covers IC50 for 20 compounds.

Structures are written as SMILES. Read-outs that look alike come from different tables or passages of the source. Where only a bound is given, the exact number is not on record here.

For assay [1], the target named is recombinant human Myt1 (full length PKMYT1) (Homo sapiens (Human), UniProt Q99640). Description: Recombinant human Myt1 kinase assay (ADP-Glo). The assay is classed as biochemical. The note with it: 10 μM ATP. In short, it runs like this: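 Full-length insect-cell-expressed human Myt1 (18 nM final) was preincubated with compound (0.5% DMSO) for 15 min at 22 °C. The reaction ran with 10 μM ATP for 60 min at 30 °C in HEPES buffer with Mg2+/Mn2+ and DTT. ADP formed was read by ADP-Glo luminescence, giving IC50 and % max inhibition.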
recombinant human Myt1 (full length PKMYT1), sequence (Q99640 whole entry): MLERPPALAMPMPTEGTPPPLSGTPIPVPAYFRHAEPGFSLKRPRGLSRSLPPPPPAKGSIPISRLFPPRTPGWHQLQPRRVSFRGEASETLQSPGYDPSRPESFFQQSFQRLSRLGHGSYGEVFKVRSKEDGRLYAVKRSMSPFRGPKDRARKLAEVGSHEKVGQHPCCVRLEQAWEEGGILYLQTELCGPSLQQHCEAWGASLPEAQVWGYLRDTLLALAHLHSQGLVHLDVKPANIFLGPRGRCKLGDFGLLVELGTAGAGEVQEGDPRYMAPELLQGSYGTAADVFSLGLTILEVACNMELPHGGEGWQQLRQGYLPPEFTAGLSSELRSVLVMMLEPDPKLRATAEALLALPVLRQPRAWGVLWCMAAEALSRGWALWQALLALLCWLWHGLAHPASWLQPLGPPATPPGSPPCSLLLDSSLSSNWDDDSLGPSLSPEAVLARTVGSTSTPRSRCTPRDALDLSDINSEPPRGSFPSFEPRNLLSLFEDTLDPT

Assay [2] has as its system PKMYT1 (CDK1 pThr14) in FUOV1 cells. Description: PKMYT1 cell-based activity assay, CDK1 pThr14 AlphaLISA in FUOV1 cells. The note with it: read-out: FUOV-1 CDK1 pThr14 IC50. In short, it runs like this: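 FUOV1 cells were treated with PKMYT1 inhibitor for 2 h at 37 °C, then lysed. CDK1 pThr14 was measured by AlphaLISA, pairing an anti-pThr14 antibody with an anti-total CDK1 antibody (5 nM each). Signal read at 680/615 nm and used to derive IC50.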

Regarding `Cc1ccc2[nH]ncc2c1-c1cc(-c2ccnc(OC3COC3)n2)nc(C(N)=O)c1N` [Compound 161], the half-inhibitory concentration (IC50) is 7 nM in assay [1] and 122 nM in assay [2] (2 h, 2 h incubation).
For the compound `Cc1ccc2[nH]ncc2c1-c1nc(-c2ccccc2NC(=O)C(C)(C)C)cc(C(N)=O)c1N` [Compound 398], the IC50 in assay [1] worked out at 7 nM; in assay [2] (2 h, 2 h compound incubation), 28 nM.
In the same order, the values of `Cc1ccc2[nH]ncc2c1-c1nc(-c2cc(F)c(F)cc2NC2CCN(C)CC2)nc(C(N)=O)c1N` [Compound 485] are 7 nM and 53 nM.
Consider `Cc1ccc2[nH]ncc2c1-c1nc(-c2cccnc2N[C@@H](c2cccnc2)C(F)F)nc(C(N)=O)c1N` [Compound 937], for which the half-maximal inhibitory concentration (IC50) in assay [1] came out at 2 nM; in assay [2] (2 h, 2 hours with compound) it was 216 nM.
On to `Cc1ccc2[nH]ncc2c1-c1nc(-c2ccns2)nc(C(N)=O)c1N` [Compound 109], for which the IC50 in assay [1] was determined as 23 nM; in assay [2] (2 h, 2 h incubation), 717 nM.
For `Cc1ccc(O)cc1-c1nc(-c2nccs2)nc(C(N)=O)c1N` [Compound 3, 5-amino-6-(5-hydroxy-2-methylphenyl)-2-(thiazol-2-yl)pyrimidine-4-carboxamide], in that order: 21 nM and 560 nM.
Consider `Cc1ccc2[nH]ncc2c1-c1cc(-c2ccnc(Sc3ccccc3)n2)nc(C(N)=O)c1N` [Compound 177, 3-amino-4-(5-methyl-1H-indazol-4-yl)-6-(2-(phenylthio)pyrimidin-4-yl)picolinamide], for which the half-inhibitory concentration (IC50) in assay [1] is 13 nM; in assay [2] (2 h, 2 h incubation) it was 346 nM.
For `Cc1ccc2[nH]ncc2c1-c1nc(-c2cc(F)c(F)cc2NC(=O)C2(C(F)(F)F)CC2)nc(C(N)=O)c1N` [Compound 471], the 50% inhibitory concentration (IC50) in assay [1] came to 16 nM; in assay [2] (2 h, 2 h compound incubation), 261 nM.
Regarding `Cc1ccc2[nH]ncc2c1-c1cc(-c2ccnc(OCc3ncccn3)n2)nc(C(N)=O)c1N` [Compound 251], the values for the IC50 in assay [1] and in assay [2] (2 h incubation) were 3 nM and 46 nM, respectively.
Regarding `Cc1ccc(O)c(C)c1-c1cc(-c2nc3ccccc3o2)nc(C(N)=O)c1N` [Compound 56], the IC50 was 7 nM in assay [1] and 373 nM in assay [2] (2 h, 2 h incubation).
On to `Cc1ccc(O)c(C)c1-c1cc(-c2ccncn2)nc(C(N)=O)c1N` [Compound 79], for which the half-inhibitory concentration (IC50) in assay [1] came to 8 nM; in assay [2] (2 h incubation), 90 nM.
Regarding `Cc1ccc2[nH]ncc2c1-c1cc(-c2cnccn2)nc(C(N)=O)c1N` [Compound 190], the half-inhibitory concentration (IC50) in assay [1] turned out to be 20 nM; in assay [2] (2 h, 2 h incubation), 860 nM.
On to `Cc1ccc2[nH]ncc2c1-c1cc(-c2cccc(F)n2)nc(C(N)=O)c1N` [Compound 241], for which the IC50 in assay [1] worked out at 10 nM; in assay [2] (2 h, 2 h incubation) it was 1970 nM.
Turning to `Cc1cccc(-c2nc(C(N)=O)c(N)c(-c3c(C)ccc4[nH]ncc34)n2)c1NC(=O)C1(C)CC1` [Compound 440], the IC50 in assay [1] was 13 nM; in assay [2] (2 h, 2 h compound incubation), 523 nM.
As to `Cc1ccc2[nH]ncc2c1-c1nc(-c2cccnc2Nc2ccnn2C2CC2)nc(C(N)=O)c1N` [Compound 885], the half-maximal inhibitory concentration (IC50) was 176 nM in assay [1] and more than 10000 nM in assay [2] (2 h, 2 hours with compound).
With `Cc1ccc2[nH]ncc2c1-c1nc(-c2cccnc2NS(C)(=O)=O)nc(C(N)=O)c1N` [Compound 804, 5-amino-6-(5-methyl-1H-indazol-4-yl)-2-(2-(methylsulfonamido)pyridin-3-yl)pyrimidine-4-carboxamide], the concentration for half-maximal inhibition (IC50) in assay [1] stood at 8 nM; in assay [2] (2 h, 2 hours with compound), 62 nM.
Take `Cc1ccc(O)c(C)c1-c1cc(-c2cccc(N3CCOCC3)c2)nc(C(N)=O)c1N` [Compound 42]: the IC50 in assay [1] was found to be 7 nM; in assay [2] (2 h, 2 h incubation), 169 nM.
As to `Cc1ccc(O)cc1-c1nc(-c2ccccc2)nc(C(N)=O)c1N` [Compound 2, 5-amino-6-(5-hydroxy-2-methylphenyl)-2-phenylpyrimidine-4-carboxamide], the IC50 in assay [1] was 11 nM; in assay [2] (2 h, 2 h incubation), 517 nM.
`Cc1ccc2[nH]ncc2c1-c1cc(-c2ccnc(OCCO)n2)nc(C(N)=O)c1N` [Compound 299]: the IC50 in assay [1] worked out at 13 nM; in assay [2] (2 h, 2 h incubation) it was 232 nM.
Consider `Cc1ccc2[nH]ncc2c1-c1nc(-c2cc(Cl)ncc2NC2CCOCC2)nc(C(N)=O)c1N` [Compound 839], for which the IC50 was 4 nM in assay [1] and 22 nM in assay [2] (2 h, 2 hours with compound).
